The source of these data is patent US11987588B2, “Modulators of the beta-3 adrenergic receptor useful for the treatment or prevention of heart failure and disorders related thereto” (Arena Pharmaceuticals, Inc., priority 2017, dated 2024).

Chain of Beta-3 Adrenergic Receptor (P13945 whole entry, species assumed): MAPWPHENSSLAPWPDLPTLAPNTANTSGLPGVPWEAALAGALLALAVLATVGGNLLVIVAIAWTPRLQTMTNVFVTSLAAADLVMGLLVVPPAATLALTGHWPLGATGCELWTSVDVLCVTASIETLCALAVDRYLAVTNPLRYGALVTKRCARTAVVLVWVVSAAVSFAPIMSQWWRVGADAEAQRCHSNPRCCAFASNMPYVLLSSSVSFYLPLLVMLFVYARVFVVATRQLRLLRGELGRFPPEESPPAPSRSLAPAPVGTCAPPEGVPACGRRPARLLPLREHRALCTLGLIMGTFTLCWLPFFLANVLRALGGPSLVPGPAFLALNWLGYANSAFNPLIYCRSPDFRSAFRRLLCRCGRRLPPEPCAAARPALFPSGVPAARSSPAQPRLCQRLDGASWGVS

The target of this experiment is Beta-3 Adrenergic Receptor (Homo sapiens (Human), UniProt P13945). Nature of the experiment: Homogeneous Time-Resolved Fluorescence (HTRF) cAMP antagonist assay, IC50 determination. To be noted: CHO-K1 cells stably expressing recombinant receptor, isoproterenol at EC90. Type of experiment: cell-based. The protocol:
HTRF cAMP assays were performed according to manufacturer's instructions (Cisbio, cAMP Dynamic 2 Assay Kit; #62AM4PEJ). CHO-K1 cells stably expressing recombinant receptor were harvested and suspended in warm PBS to make a 300,000 cells/mL stock. This cell suspension was dispensed into 384 well assay plates (PerkinElmer ProxiPlate #6008280) at 5 μL per well (1500 cells/well) along with a cAMP standard curve.
Compounds were dissolved and serially diluted (5-fold) in DMSO to generate a 10-point dose response stock. The stock was then diluted 100-fold in assay buffer (PBS containing 1 mM IBMX) before a volume of 2.5 μL was added to the cells (the final, top concentration of compound in the dose-response is typically 10 or 100 μM). After a brief incubation, 2.5 μL of isoproterenol stock, prepared at a concentration 4 times its EC90 at the receptor of interest, was added to the wells. The EC90 for isoproterenol, a beta-adrenergic agonist, was determined in separate experiments using standard methods to measure agonist potencies.
Following a 1-hour incubation at room temperature, 5 μL of cAMP-D2 Reagent diluted in Lysis Buffer was added to each well followed by 5 μL of Cryptate Reagent. Plates were further incubated at room temperature for 1 hour prior to reading. Time resolved fluorescence measurements were collected on a suitable, HTRF-capable plate reader.
Counts from the plate reader were fit to the cAMP standard curve on the assay plate in order to determine cAMP concentrations in each well, and these values were used to construct dose-response curves to obtain IC50 values.
Usually IC50 stands for the concentration needed to halve the response being measured. `CNS(=O)(=O)c1cccc(OC[C@@H](O)CNC2COC3(CCN(S(=O)(=O)c4cc(Cl)ccc4OC)CC3)C2)c1` (stereo partly drawn) [Compound 148, 3-((2S)-3-(8-(5-chloro-2-methoxyphenylsulfonyl)-1-oxa-8-azaspiro[4.5]decan-3-ylamino)-2-hydroxypropoxy)-N-methylbenzenesulfonamide]: the 50% inhibitory concentration (IC50) stood at 0.011 µM. Under `CNS(=O)(=O)c1cccc(OC[C@@H](O)CNC2COC3(CCN(S(=O)(=O)c4cc(Br)ccc4C)CC3)C2)c1` (stereo partly drawn) [Compound 237, 3-((2S)-3-(8-(5-bromo-2-methylphenylsulfonyl)-1-oxa-8-azaspiro[4.5]decan-3-ylamino)-2-hydroxypropoxy)-N-methylbenzenesulfonamide] stands 0.0428 µM; under `CNS(=O)(=O)c1cccc(OC[C@@H](O)CNC2COC3(CCN(S(=O)(=O)c4cccc(-c5ccc(C(=N)N)cc5)c4)CC3)C2)c1` (stereo partly drawn) [Compound 383, 3′-(3-((S)-2-hydroxy-3-(3-(N-methylsulfamoyl)phenoxy)propylamino)-1-oxa-8-azaspiro[4.5]decan-8-ylsulfonyl)biphenyl-4-carboximidamide], 0.0218 µM. For `CNS(=O)(=O)c1cccc(OC[C@@H](O)CNC2COC3(CCN(S(=O)(=O)c4ccc(Br)cc4)CC3)C2)c1` (stereo partly drawn) [Compound 52, 3-((2S)-3-(8-(4-bromophenylsulfonyl)-1-oxa-8-azaspiro[4.5]decan-3-ylamino)-2-hydroxypropoxy)-N-methylbenzenesulfonamide], the half-inhibitory concentration (IC50) was found to be 0.0141 µM. As for `COc1ccc(S(=O)(=O)N2CCC3(CC2)CC(NC[C@H](O)COc2cccc(S(=O)(=O)N(C)C)c2)CO3)cc1C` (stereo partly drawn) [Compound 247, 3-((2S)-2-hydroxy-3-(8-(4-methoxy-3-methylphenylsulfonyl)-1-oxa-8-azaspiro[4.5]decan-3-ylamino)propoxy)-N,N-dimethylbenzenesulfonamide], the figure is 0.0272 µM. With `C[C@@H](NS(=O)(=O)c1cccc(OC[C@@H](O)CNC2COC3(CCN(S(=O)(=O)c4ccc5ccccc5c4)CC3)C2)c1)C1CC1` (stereo partly drawn) [Compound 93, N—((R)-1-cyclopropylethyl)-3-((2S)-2-hydroxy-3-(8-(naphthalen-2-ylsulfonyl)-1-oxa-8-azaspiro[4.5]decan-3-ylamino)propoxy)benzenesulfonamide], the IC50 turned out to be 0.112 µM. Under `CNS(=O)(=O)c1cccc(OC[C@@H](O)CN[C@H]2COC3(CCN(S(=O)(=O)c4cnc5c(c4)CC(=O)N5)CC3)C2)c1` [Compound 514, 3-((S)-2-hydroxy-3-((R)-8-(2-oxo-2,3-dihydro-1H-pyrrolo[2,3-b]pyridin-5-ylsulfonyl)-1-oxa-8-azaspiro[4.5]decan-3-ylamino)propoxy)-N-methylbenzenesulfonamide] stands 0.176 µM. Under `CN(C)CCCNS(=O)(=O)c1cccc(OC[C@@H](O)CNC2COC3(CCN(S(=O)(=O)c4ccc5nsnc5c4)CC3)C2)c1` (stereo partly drawn) [Compound 312, 3-((2S)-3-(8-(benzo[c][1,2,5]thiadiazol-5-ylsulfonyl)-1-oxa-8-azaspiro[4.5]decan-3-ylamino)-2-hydroxypropoxy)-N-(3-(dimethylamino)propyl)benzenesulfonamide] stands 3.17 µM; under `CNS(=O)(=O)c1cccc(OC[C@@H](O)CN[C@H]2COC3(CCN(S(=O)(=O)c4cnc5[nH]cc(C(F)(F)F)c5c4)CC3)C2)c1` [Compound 509, 3-((S)-2-hydroxy-3-((R)-8-(3-(trifluoromethyl)-1H-pyrrolo[2,3-b]pyridin-5-ylsulfonyl)-1-oxa-8-azaspiro[4.5]decan-3-ylamino)propoxy)-N-methylbenzenesulfonamide], 0.00695 µM. For the compound `CNC(=O)[C@@H](NS(=O)(=O)c1cccc(OC[C@@H](O)CNC2COC3(CCN(S(=O)(=O)c4ccc5ccccc5c4)CC3)C2)c1)[C@@H](C)O` (stereo partly drawn) [Compound 92, (2S,3R)-3-hydroxy-2-(3-((2S)-2-hydroxy-3-(8-(naphthalen-2-ylsulfonyl)-1-oxa-8-azaspiro[4.5]decan-3-ylamino)propoxy)phenylsulfonamido)-N-methylbutanamide], the IC50 amounted to 1.99 µM.

Take `CNS(=O)(=O)c1cccc(OC[C@@H](O)CNC2COC3(CCN(S(=O)(=O)c4cccc(-c5ccncc5)c4)CC3)C2)c1` (stereo partly drawn) [Compound 106, 3-((2S)-2-hydroxy-3-(8-(3-(pyridin-4-yl)phenylsulfonyl)-1-oxa-8-azaspiro[4.5]decan-3-ylamino)propoxy)-N-methylbenzenesulfonamide]: the IC50 is 0.0133 µM. Consider `COCCNS(=O)(=O)c1cccc(OC[C@@H](O)CN[C@H]2COC3(CCN(S(=O)(=O)c4cnc5cc[nH]c5c4)CC3)C2)c1` [Compound 530, 3-((S)-3-((R)-8-(1H-pyrrolo[3,2-b]pyridin-6-ylsulfonyl)-1-oxa-8-azaspiro[4.5]decan-3-ylamino)-2-hydroxypropoxy)-N-(2-methoxyethyl)benzenesulfonamide], for which the half-inhibitory concentration (IC50) turned out to be 0.214 µM.

Take `CN1CCOc2ncc(S(=O)(=O)N3CCC4(CC3)C[C@@H](NC[C@H](O)COc3cccc(S(=O)(=O)NCCO)c3)CO4)cc21` [Compound 417, 3-((S)-2-hydroxy-3-((R)-8-(1-methyl-2,3-dihydro-1H-pyrido[2,3-b][1,4]oxazin-7-ylsulfonyl)-1-oxa-8-azaspiro[4.5]decan-3-ylamino)propoxy)-N-(2-hydroxyethyl)benzenesulfonamide]: the IC50 is 0.112 µM.

For the compound `O=S(=O)(NCCO)c1cccc(OC[C@@H](O)CN[C@H]2COC3(CCN(S(=O)(=O)c4cnc5cc[nH]c5c4)CC3)C2)c1` [Compound 521, 3-((S)-3-((R)-8-(1H-pyrrolo[3,2-b]pyridin-6-ylsulfonyl)-1-oxa-8-azaspiro[4.5]decan-3-ylamino)-2-hydroxypropoxy)-N-(2-hydroxyethyl)benzenesulfonamide], the IC50 worked out at 0.0983 µM. For the compound `CNS(=O)(=O)c1cccc(OC[C@@H](O)CN[C@H]2COC3(CCN(S(=O)(=O)c4cnc5cccnc5c4)CC3)C2)c1` [Compound 485, 3-((S)-3-((R)-8-(1,5-naphthyridin-3-ylsulfonyl)-1-oxa-8-azaspiro[4.5]decan-3-ylamino)-2-hydroxypropoxy)-N-methylbenzenesulfonamide], the IC50 came to 0.0358 µM. As for `CNS(=O)(=O)c1cccc(OC[C@@H](O)CN[C@H]2COC3(CCN(S(=O)(=O)c4ccc(OC)c(C)c4)CC3)C2)c1` [Compound 267, 3-((S)-2-hydroxy-3-((R)-8-(4-methoxy-3-methylphenylsulfonyl)-1-oxa-8-azaspiro[4.5]decan-3-ylamino)propoxy)-N-methylbenzenesulfonamide], the figure is 0.00943 µM; as for `CNS(=O)(=O)c1cccc(OC[C@@H](O)CN[C@H]2COC3(CCN(S(=O)(=O)c4cnc5nc(N)ccc5c4)CC3)C2)c1` [Compound 489, 3-((S)-3-((R)-8-(7-amino-1,8-naphthyridin-3-ylsulfonyl)-1-oxa-8-azaspiro[4.5]decan-3-ylamino)-2-hydroxypropoxy)-N-methylbenzenesulfonamide], 0.0339 µM.

Consider `CN(C)CCCNS(=O)(=O)c1cccc(OC[C@@H](O)CNC2COC3(CCN(S(=O)(=O)c4ccc5ccccc5c4)CC3)C2)c1` (stereo partly drawn) [Compound 317, N-(3-(dimethylamino)propyl)-3-((2S)-2-hydroxy-3-(8-(naphthalen-2-ylsulfonyl)-1-oxa-8-azaspiro[4.5]decan-3-ylamino)propoxy)benzenesulfonamide], for which the IC50 is 1.01 µM.
